This note sets out measurements from patent US11865118B2, “Heterocyclic compounds and their use in preventing or treating bacterial infections” (MUTABILIS, priority 2018, dated 2024).

Where a name gives a salt, the structure may show the parent alone. A value given as a limit tells only on which side of the number the result lay.

Holding throughout (experiment): MIC of compounds alone, broth microdilution (CLSI)
Common to all, as to format: cell-based
A general note: In broth dilution the organism is exposed to a series of concentrations in liquid medium.

One assay has as its system P. aeruginosa PAE 107051. The following applies: Pseudomonas aeruginosa, PAE107051, substance alone, TEM-24, OXA-1. As for the experimental part:
(§1) Compounds of the present invention were assessed against genotyped bacterial strains alone or in combination with the β-lactam ceftazidime.

Another assay has as its system E. coli ECO UFR39. The conditions noted are these: Escherichia coli, ECOUFR39, substance alone, CTX-M-15, NDM-1. As for the experimental part: as §1
For the next assay, the system named is P. aeruginosa PAE UFR49. The following applies: Pseudomonas aeruginosa, PAEUFR49, substance alone, VIM-2. The procedure: as §1
In another assay the test system is K. pneumoniae KPN 121206. The following applies: Klebsiella pneumoniae, KPN121206, substance alone, SHV-1, NDM-1. As for the experimental part:
as §1

A further assay has as its system E. coli ECO 190317. The conditions noted are these: Escherichia coli, ECO190317, substance alone, TEM-1, SHV-12, CTX-M-15, OXA-1. The procedure: as §1
Assay [1] relates to P. aeruginosa PAE 105250 (AH). The following applies: Pseudomonas aeruginosa, substance alone, OXA-15. The procedure: as §1
The next assay concerns P. aeruginosa PAE UFR92. The conditions noted are these: Pseudomonas aeruginosa, PAEUFR92, read-out: MIC alone PAE UFR92. As for the experimental part: as §1
For the next assay, the system named is E. cloacae ECL P99. The conditions noted are these: Enterobacter cloacae, ECLP99, substance alone, AmpC. The procedure:
as §1

Usually MIC stands for the smallest concentration in the dilution series that meets the test's criterion for growth inhibition. In the case of `CN(C)C(=O)[C@H]1c2nc(C(=O)NCCNC(=N)N)sc2[C@@H]2CN1C(=O)N2OS(=O)(=O)O` (relative stereo) [Example 9, [trans-4-(dimethylcarbamoyl)-2-(2-guanidinoethylcarbamoyl)-5,8-methano-6-oxo-4,8-dihydrothiazolo[4,5-e][1,3]diazepin-7-yl] hydrogen sulfate], the minimum inhibitory concentration (MIC) was 8 µg/mL in the assay with P. aeruginosa PAE 107051; above 32 µg/mL in the assay with E. coli ECO UFR39; 4 µg/mL in the assay with P. aeruginosa PAE UFR49; above 32 µg/mL in the assay with K. pneumoniae KPN 121206; 32 µg/mL in the assay on E. coli ECO 190317; 8 µg/mL in assay [1]. In addition, the MIC was 32 µg/mL in the assay on P. aeruginosa PAE UFR92 and above 32 µg/mL with E. cloacae ECL P99.
Take `CN(C)C(=O)[C@@H]1c2c(CNC(=N)N)csc2[C@H]2CN1C(=O)N2OS(=O)(=O)O.O=C(O)C(F)(F)F` (relative stereo) [Example 10, [N-[[trans-4-(dimethylcarbamoyl)-5,8-methano-6-oxo-7-sulfooxy-4,8-dihydrothieno[2,3-e][1,3]diazepin-3-yl]methyl]carbamimidoyl]ammonium 2,2,2-trifluoroacetate]: the MIC with P. aeruginosa PAE 107051 amounted to 4 µg/mL; in the assay on E. coli ECO UFR39 it was 32 µg/mL; with P. aeruginosa PAE UFR49, 8 µg/mL; with K. pneumoniae KPN 121206, 32 µg/mL; in the assay with E. coli ECO 190317 it was 2 µg/mL; in assay [1] it was 8 µg/mL. The MIC came out at 8 µg/mL in the assay on P. aeruginosa PAE UFR92 and 16 µg/mL with E. cloacae ECL P99.
For `CN(C)C(=O)[C@@H]1c2c(CCNC(=N)N)csc2C2CN1C(=O)N2OS(=O)(=O)O` (stereo in doubt) [Example 11, [(trans-4-(dimethylcarbamoyl)-3-(2-quanidinoethyl)-5,8-methano-6-oxo-4,8-dihydrothieno[2,3-e][1,3]diazepin-7-yl] hydrogen sulfate], the minimal inhibitory concentration (MIC) in the assay with P. aeruginosa PAE 107051 is 4 µg/mL; with E. coli ECO UFR39, above 32 µg/mL; with P. aeruginosa PAE UFR49, 4 µg/mL; with K. pneumoniae KPN 121206 it was above 32 µg/mL; with E. coli ECO 190317 it was 4 µg/mL; in assay [1], 4 µg/mL. Besides, the MIC with P. aeruginosa PAE UFR92 is 8 µg/mL; in the assay on E. cloacae ECL P99, 16 µg/mL.
Turning to `CC(C)(O/N=C(\C(=O)N[C@@H]1C(=O)N2C(C(=O)[O-])=C(C[n+]3ccccc3)CS[C@H]12)c1csc(N)n1)C(=O)O` [CAZ, ceftazidime], the minimum inhibitory concentration (MIC) was 256 µg/mL with P. aeruginosa PAE 107051; above 256 µg/mL with E. coli ECO UFR39; 64 µg/mL in the assay on P. aeruginosa PAE UFR49; above 256 µg/mL in the assay with K. pneumoniae KPN 121206; 128 µg/mL in the assay on E. coli ECO 190317; 256 µg/mL in assay [1]. The MIC with P. aeruginosa PAE UFR92 amounted to 32 µg/mL; with E. cloacae ECL P99, 128 µg/mL.
`NCCNC(=O)c1nc2c(s1)C1CN(C2)C(=O)N1S(=O)(=O)O` (stereo not drawn) [Example 1, [2-(2-aminoethylcarbamoyl)-5,8-methano-6-oxo-4,8-dihydrothiazolo[4,5-e][1,3]diazepin-7-yl]sulfonic acid]: the minimum inhibitory concentration (MIC) with P. aeruginosa PAE 107051 turned out to be 8 µg/mL; with E. coli ECO UFR39, 0.5 µg/mL; with P. aeruginosa PAE UFR49, 16 µg/mL; with K. pneumoniae KPN 121206, 32 µg/mL; in the assay with E. coli ECO 190317, 0.25 µg/mL; in assay [1], 8 µg/mL. Moreover, the MIC with P. aeruginosa PAE UFR92 amounted to 8 µg/mL; in the assay with E. cloacae ECL P99, 2 µg/mL.
For the compound `N=C(N)NCc1nc2c(s1)C1CN(C2)C(=O)N1OS(=O)(=O)O` (stereo not drawn) [Example 2], the MIC is 2 µg/mL with P. aeruginosa PAE 107051; 0.125 µg/mL in the assay on E. coli ECO UFR39; 4 µg/mL in the assay on P. aeruginosa PAE UFR49; above 32 µg/mL in the assay on K. pneumoniae KPN 121206; 0.063 µg/mL in the assay on E. coli ECO 190317; 4 µg/mL in assay [1]. The values for the MIC in the assay with P. aeruginosa PAE UFR92 and with E. cloacae ECL P99 were 4 µg/mL and 1 µg/mL, respectively.
With `N=C(N)NCCNC(=O)c1nc2c(s1)C1CN(C2)C(=O)N1OS(=O)(=O)O` (stereo not drawn) [Example 3, [2-(2-quanidinoethylcarbamoyl)-5,8-methano-6-oxo-4,8-dihydrothiazolo[4,5-e][1,3]diazepin-7-yl]sulfonic acid], the minimum inhibitory concentration (MIC) in the assay on P. aeruginosa PAE 107051 amounted to 4 µg/mL; in the assay on E. coli ECO UFR39 it was 2 µg/mL; in the assay with P. aeruginosa PAE UFR49, 16 µg/mL; in the assay with K. pneumoniae KPN 121206, 16 µg/mL; in the assay with E. coli ECO 190317 it was 0.5 µg/mL; in assay [1], 8 µg/mL. Besides, the MIC is 8 µg/mL with P. aeruginosa PAE UFR92 and 0.5 µg/mL with E. cloacae ECL P99.
For `NCc1nc2c(s1)C1CN(C2)C(=O)N1OS(=O)(=O)O` (stereo not drawn) [Example 4], the MIC in the assay on P. aeruginosa PAE 107051 is above 32 µg/mL; with E. coli ECO UFR39 it was 0.25 µg/mL; in the assay on P. aeruginosa PAE UFR49, 32 µg/mL; in the assay with K. pneumoniae KPN 121206, 32 µg/mL; with E. coli ECO 190317, 0.25 µg/mL; in assay [1], 32 µg/mL. For the same compound, the MIC turned out to be 32 µg/mL in the assay with P. aeruginosa PAE UFR92 and 1 µg/mL in the assay with E. cloacae ECL P99.
Take `O=C(Nc1nc2c(s1)C1CN(C2)C(=O)N1OS(=O)(=O)[O-])OCc1ccccc1.[Na+]` (stereo not drawn) [Example 5]: the MIC (with P. aeruginosa PAE 107051; in the assay on E. coli ECO UFR39; with P. aeruginosa PAE UFR49; with K. pneumoniae KPN 121206; in the assay with E. coli ECO 190317; in assay [1]) was above 32 µg/mL in each case. Also, the MIC in the assay on P. aeruginosa PAE UFR92 and in the assay on E. cloacae ECL P99 was above 32 µg/mL each time.
Consider `CC(=O)Nc1nc2c(s1)C1CN(C2)C(=O)N1OS(=O)(=O)[O-].[Na+]` (stereo not drawn) [Example 6], for which the MIC with P. aeruginosa PAE 107051 was above 32 µg/mL; in the assay on E. coli ECO UFR39, 4 µg/mL; in the assay with P. aeruginosa PAE UFR49, above 32 µg/mL; in the assay on K. pneumoniae KPN 121206, above 32 µg/mL; in the assay with E. coli ECO 190317, 2 µg/mL; in assay [1], above 32 µg/mL. In addition, the MIC is above 32 µg/mL in the assay on P. aeruginosa PAE UFR92 and 16 µg/mL with E. cloacae ECL P99.
With `O=C1N2Cc3ccsc3C(C2)N1OS(=O)(=O)[O-].[Na+]` (stereo not drawn) [Example 7], the MIC with P. aeruginosa PAE 107051 was above 32 µg/mL; in the assay on E. coli ECO UFR39, 4 µg/mL; in the assay with P. aeruginosa PAE UFR49, above 32 µg/mL; in the assay with K. pneumoniae KPN 121206, above 32 µg/mL; in the assay on E. coli ECO 190317, 2 µg/mL; in assay [1], above 32 µg/mL. Further, the values for the minimum inhibitory concentration (MIC) with P. aeruginosa PAE UFR92 and in the assay on E. cloacae ECL P99 were above 32 µg/mL and 8 µg/mL, respectively.
For the compound `CCOC(=O)[C@@H]1c2c(-c3ccc(F)cc3)csc2[C@@H]2CN1C(=O)N2OS(=O)(=O)[O-].[Na+]` [Example 8], the MIC (with P. aeruginosa PAE 107051; in the assay with E. coli ECO UFR39; in the assay on P. aeruginosa PAE UFR49; with K. pneumoniae KPN 121206; in the assay on E. coli ECO 190317; in assay [1]) was above 32 µg/mL each time. Moreover, the MIC in the assay with P. aeruginosa PAE UFR92 and in the assay on E. cloacae ECL P99 was above 32 µg/mL each time.
